Data published in patent publication US20070224167A1, “Novel HCV inhibitor combinations and methods” (priority 2006, published 2007).

Key:
[1] = system: GAPDH RNA, Huh7-1a replicon cells; test: GAPDH RNA in genotype 1a (H77) replicon cells; format: cell-based; settings: Homo sapiens, 72 h, read-out: GAPDH EC50
Experimental: (§1) HCV genotype 1b, BB7 replicon-containing cell line is derived from a human hepatoma cell line (Huh7). A genotype 1a (H77 isolate; GenBank Accession #AF009606) is derived from replicon-containing cell line (Huh7-1a). The cell lines are cultured at 37° C. and 5% CO2 in Dulbecco's Modified Eagle Media (D-MEM; Invitrogen #11965-084) containing 10% fetal bovine serum (FBS; HyClone #SH300070) supplemented with 1% penicillin/streptomycin (Invitrogen #15140-122), 1% non-essential amino acids (Invitrogen #11140-050), 0.66 mM HEPES buffer, pH 7.55 (Invitrogen #15630-080), and 1 mg/mL G418 (Geneticin®, Invitrogen #11811-031 or #10131-027). Genotype 1a and genotype 1b replicon-containing cell lines contain approximately 1000 and 2000 RNA genome equivalents per cell, respectively, when maintained in a subconfluent monolayer in the presence of 1 mg/mL G418. For compound testing, G418 is eliminated and the FBS concentration is reduced to 2%.
Genotype 1b (BB7) and 1a (H77) cells are seeded in 96-well plates at a sub-confluent density (7000 cells/well) in medium containing 2% FBS without G418. […] The amounts of HCV, rRNA and GAPDH RNAs are quantified using the TaqMan RT-PCR assay.

[2] = system: HCV 1a H77 replicon; test: Intracellular antiviral activity in HCV replicon, genotype 1a; format: cell-based, HCV genotype 1a; settings: Hepatitis C virus, 72 h, read-out: HCV RNA EC50
Experimental: as §1, with “Genotype 1a and genotype 1b replicon-containing cell lines contain approximately 1000 and 2000 RNA genome equivalents per cell, respectively, when maintained in a subconfluent monolayer in the presence of 1 mg/mL G418. For compound testing, G418 is eliminated and the FBS concentration is reduced to 2%.” left out
(§2) At the end of the incubation period, the replicon-containing cells are lysed in 150 μL of lysis buffer provided in the RNeasy 96 Kit (Qiagen #74181). […] For duplexed RT-PCR quantifying both HCV RNA and 18S rRNA, 0.08 μM rRNA forward primer, 0.1 μM rRNA reverse primer, and 0.2 μM rRNA probe are added (ABI #4308329). […]
The amounts of the HCV and 18S ribosomal RNAs in each sample are estimated by comparing the Ct cycles with those in the corresponding standard curves. […] The total RNA that is used for preparing the standard curve of the rRNA is quantified by O.D.260 measurement. Compound dose response is measured in a 10-point, 3-fold serial dilution series performed in triplicates and subjected to the same corresponding RT-PCR conditions as described above. […]

[3] = system: HCV 1b BB7 replicon; test: Intracellular antiviral activity in HCV replicon, genotype 1b; format: cell-based, HCV genotype 1b; settings: for EC50: Hepatitis C virus, 72 h, read-out: HCV RNA EC50
Experimental: as §1
as §2, with “#74181). Total cellular RNA is extracted according to the manufacturer's protocol and eluted in 150 μL of nuclease-free water.” for “#74181).”
The amounts of the HCV and 18S ribosomal RNAs in each sample are estimated by comparing the Ct cycles with those in the corresponding standard curves. […] The total RNA that is used for preparing the standard curve of the rRNA is quantified by O.D.260 measurement. Compound dose response is measured in a 10-point, 3-fold serial dilution series performed in triplicates and subjected to the same corresponding RT-PCR conditions as described above. […] The amounts of HCV are expressed as HCV RNA copies and μg total RNA using rRNA as the surrogate marker for the quantification. […]

SMILES	EC50 [1]	EC50 [2]	EC50 [3]	Difference in EC50, changing media daily vs. single dose in 3 days ([3]; replicon, 3 days)
CC(C)(C)NC(=O)N[C@H](C(=O)N1C[C@H]2[C@@H]([C@H]1C(=O)NC(CC1CCC1)C(=O)C(N)=O)C2(C)C)C(C)(C)C (stereo partly drawn) [SCH 503034, (1R,5S)—N-[3-amino-1-(cyclobutylmethyl)-2,3-dioxopropyl]-3-[2(S)-[[[(1,1-dimethylethyl)amino]carbonyl]amino]-3,3-dimethyl-1-oxobutyl]-6,6-dimethyl-3-azabicyclo[3.1.0]hexan-2(S)-carboxamide]	> 3200 nM	188 ± 18 nM	268 ± 29 nM	No difference in EC50
CNC(=O)c1c(-c2ccc(F)cc2)oc2cc(N(CCO)S(C)(=O)=O)c(C3CC3)cc12 [HCV-796, 5-cyclopropyl-2-(4-fluoro-phenyl)-6-[(2-hydroxy-ethyl)-methanesulfonyl-amino]-benzofuran-3-carboxylic acid methylamide]	> 5600 nM	2.5 ± 1.7 nM	1.1 ± 0.2 nM	–
